Molecules are shown by their SMILES.

The text below walks through data of patent US12187684B2, “Benzimidazole derivatives as modulators of retinoid-related orphan receptor gamma (RORγ) and pharmaceutical use thereof” (Jiangsu Hengrui Medicine Co., Ltd., priority 2018, dated 2025).

Test [1] concerns IL-17 production, human PBMC cells. The test is described as follows: IL-17 production assay using human PBMC. The following applies: human PBMC stimulated by cytostim for 3 days, IL-17 ELISA of supernatant. Format: cell-based. An excerpt:
Test Example 2. IL-17 Production Assay Using Human PBMC
• 1. Human PBMC cells (Cat No. 70025.1, Zenbio) • 2. Lymphocyte medium (Cat No. LYMPH-1, Zenbio) • 3. TexMACS (Cat No. 130-097-196, Miltenyi) • 4. Cytostim-human (Cat No. 1130-092-173, Miltenyi) • 5. Human IL-17 ELISA (Cat No. D1700, R&D systems) • 6. Tecan Infinite M1000 plate reader (Tecan)
Experimental Procedure for IL-17 Production Assay
Cryopreserved peripheral blood human mononuclear cells (PBMCs) were rapidly thawed in warmed Lymphocyte media, and centrifuged cell suspension at 1000 rpm for 10 minutes. The supernatant was removed, and the cell pellets were gently resuspended in TexMACS media.
Human PBMC cells in TexMACS media were plated at 1×10^5 each well in triplicate. The test compounds at various concentrations or vehicle control (<0.5% DMSO) were added into cell culture. The cells were stimulated by cytostim (10 μL/mL) for 3 days in a humidified, 5% CO2 incubator at 37° C.
After incubation, the cell culture supernatant was harvested, and then removed particulates by centrifugation. Human IL-17 in the supernatant was measured using human IL-17 ELISA kit according to the manufacturer's protocol. IC50 values were determined using GraphPad Prism by plotting the compounds concentration versus percent inhibition.

In test [2] the target is T1, RORγ LBD-GST tagged (Homo sapiens, UniProt P51449).
T1 construct: RORγ LBD-GST tagged (Cat No. RORC-114H, Creative Biomart); purchased Creative Biomart RORC-114H
T1 sequence (P51449 269-508 limits assumed): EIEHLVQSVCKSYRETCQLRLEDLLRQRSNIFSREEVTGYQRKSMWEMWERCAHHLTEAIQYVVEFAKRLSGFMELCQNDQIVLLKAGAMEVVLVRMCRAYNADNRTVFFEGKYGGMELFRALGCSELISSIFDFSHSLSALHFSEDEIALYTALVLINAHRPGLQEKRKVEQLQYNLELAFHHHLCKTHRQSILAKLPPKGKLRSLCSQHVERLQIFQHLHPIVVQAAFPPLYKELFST
Put plainly: LanthaScreen TR-FRET RORγ coactivator assay. Type of test: biochemical. The following applies: Fluorescein-D22 coactivator peptide, 1 hour room temperature. The gist of the method: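 GST-tagged RORγ LBD (25 ng/reaction) was incubated in coregulator buffer D with 5 mM DTT and compound (top 3 μM, 7-fold steps, 7 doses), then with a mix containing 0.6 μM fluorescein-D22 peptide and 8 nM Tb anti-GST antibody. After 1 h at room temperature in the dark, 520/495 nm TR-FRET was read. IC50 came from log concentration versus percent inhibition.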

For `CCS(=O)(=O)c1ccc(Cc2nc3c(Cl)c(-c4ccccc4OCC(F)(F)F)c(Cl)cc3[nH]2)cc1` [Example 31, 4,6-dichloro-2-(4-(ethylsulfonyl)benzyl)-5-(2-(2,2,2-trifluoroethoxy)phenyl)-1H-benzo[d]imidazole], the IC50 is 0.011 µM in test [1] (Homo sapiens, PBMC, 72 h) and 0.01 µM in test [2]. Consider `CCS(=O)(=O)c1ccc(C(CO)c2nc3cc(Cl)c(N4CCC(F)(F)CC4)c(Cl)c3[nH]2)cc1` (stereo not shown) [Example 126, 2-(5,7-dichloro-6-(4,4-difluoropiperidin-1-yl)-1H-benzo[d]imidazol-2-yl)-2-(4-(ethylsulfonyl)phenyl)ethanol], for which the half-inhibitory concentration (IC50) is 0.008 µM in test [1] (Homo sapiens, PBMC, 72 h) and 0.135 µM in test [2].

`O=S(=O)(CC1CC1)c1ccc(C(CCO)c2nc3cc(Cl)c(-c4ccccc4OC(F)F)cc3[nH]2)cc1` (stereo not shown) [Example 142, 3-(5-chloro-6-(2-(difluoromethoxy)phenyl)-1H-benzo[d]imidazol-2-yl)-3-(4-((cyclopropylmethyl)sulfonyl)phenyl)propan-1-ol]: the IC50 in test [1] (Homo sapiens, PBMC, 72 h) came out at 0.028 µM; in test [2] it was 0.013 µM. With `CC(C)Oc1ccccc1-c1cc2nc(C(CC(N)=O)c3ccc(S(=O)(=O)CC4CC4)cc3)[nH]c2cc1Cl` (single isomer, unassigned) [the longer retention time of 148 and 149, 3-(6-chloro-5-(2-isopropoxyphenyl)-1H-benzo[d]imidazol-2-yl)-3-(4-((cyclopropylmethyl)sulfonyl)phenyl)propanamide], the 50% inhibitory concentration (IC50) in test [1] is 0.022 µM; in test [2] it was 0.083 µM.

For the molecule `CCS(=O)(=O)c1ccc(C(CO)c2nc3c(Cl)c(-c4ccccc4OC(F)F)c(Cl)cc3[nH]2)c(F)c1` (stereo not shown) [Example 84, 2-(4,6-dichloro-5-(2-(difluoromethoxy)phenyl)-1H-benzo[d]imidazol-2-yl)-2-(4-(ethylsulfonyl)-2-fluorophenyl)ethanol], the half-inhibitory concentration (IC50) in test [1] (Homo sapiens, PBMC, 72 h) is 0.013 µM; in test [2] it was 0.019 µM. For `CCS(=O)(=O)c1ccc(C(O)c2nc3c(Cl)c(-c4ccccc4OC(F)(F)F)c(Cl)cc3[nH]2)cc1` (stereo not shown) [Example 5, (4,6-dichloro-5-(2-(trifluoromethoxy)phenyl)-1H-benzo[d]imidazol-2-yl)(4-(ethylsulfonyl)phenyl)methanol], in that order: 0.025 µM and 0.626 µM. `O=S(=O)(CC1CC1)c1ccc(C(CCO)c2nc3cc(-c4ccccc4OC(F)F)c(Cl)cc3[nH]2)cc1` (single isomer, unassigned) [the shorter retention time of 155 and 156] [3-(6-chloro-5-(2-(difluoromethoxy)phenyl)-1H-benzo[d]imidazol-2-yl)-3-(4-((cyclopropylmethyl)sulfonyl)phenyl)propan-1-ol] showed an IC50 in test [1] of 0.135 µM.

In test [1], `NC(=O)CC(c1ccc(S(=O)(=O)CC2CC2)cc1)c1nc2cc(Cl)c(N3CCC(F)(F)CC3)c(Cl)c2[nH]1` (single isomer, unassigned) [the shorter retention time of 162 and 163] [3-(4-((cyclopropylmethyl)sulfonyl)phenyl)-3-(5,7-dichloro-6-(4,4-difluoropiperidin-1-yl)-1H-benzo[d]imidazol-2-yl)propanamide] showed an IC50 of 0.069 µM. In turn, `CCS(=O)(=O)c1ccc(C(CCO)c2nc3c(Cl)c(N4CCC(F)(F)CC4)c(Cl)cc3[nH]2)cc1` (single isomer, unassigned) [the shorter retention time of 139 and 140] [3-(4,6-dichloro-5-(4,4-difluoropiperidin-1-yl)-1H-benzo[d]imidazol-2-yl)-3-(4-(ethylsulfonyl)phenyl)propan-1-ol] registered a half-maximal inhibitory concentration (IC50) in test [1] of 0.214 µM. This IC50 lies about 3.1-fold higher than the previous one. In turn, `NC(=O)CC(c1ccc(S(=O)(=O)CC2CC2)cc1)c1nc2cc(-c3ccccc3OC(F)F)c(Cl)cc2[nH]1` (single isomer, unassigned) [the shorter retention time of 152 and 153] [3-(6-chloro-5-(2-(difluoromethoxy)phenyl)-1H-benzo[d]imidazol-2-yl)-3-(4-((cyclopropylmethyl)sulfonyl)phenyl)propanamide] had a concentration for half-maximal inhibition (IC50) in test [1] of 0.86 µM. `CC(C)Oc1ccccc1-c1cc2nc(C(CC(N)=O)c3ccc(S(=O)(=O)CC4CC4)cc3)[nH]c2cc1Cl` (single isomer, unassigned) [the shorter retention time of 148 and 149] [3-(6-chloro-5-(2-isopropoxyphenyl)-1H-benzo[d]imidazol-2-yl)-3-(4-((cyclopropylmethyl)sulfonyl)phenyl)propanamide] gave a half-inhibitory concentration (IC50) in test [1] of 0.555 µM. Still for that read-out and setting: the figure for `CC(C)Oc1ccccc1-c1cc2nc(C(CCO)c3ccc(S(=O)(=O)CC4CC4)cc3)[nH]c2cc1Cl` (single isomer, unassigned) [the shorter retention time of 150 and 151] [3-(6-chloro-5-(2-isopropoxyphenyl)-1H-benzo[d]imidazol-2-yl)-3-(4-((cyclopropylmethyl)sulfonyl)phenyl)propan-1-ol] is 0.718 µM; for `CCS(=O)(=O)c1ccc(C(CC(N)=O)c2nc3c(Cl)c(N4CCC(F)(F)CC4)c(Cl)cc3[nH]2)cc1` (single isomer, unassigned) [the shorter retention time of 146 and 147] [3-(4,6-dichloro-5-(4,4-difluoropiperidin-1-yl)-1H-benzo[d]imidazol-2-yl)-3-(4-(ethylsulfonyl)phenyl)propanamide] it is 0.315 µM.

`CCS(=O)(=O)c1ccc(C(N)c2nc3c(Cl)c(-c4ccccc4OC(F)(F)F)c(Cl)cc3[nH]2)cc1` (stereo not shown) [Example 43, (4,6-dichloro-5-(2-(trifluoromethoxy)phenyl)-1H-benzo[d]imidazol-2-yl)(4-(ethylsulfonyl)phenyl)methanamine]: the IC50 in test [2] worked out at 0.656 µM.

`CCS(=O)(=O)c1ccc(C(CCO)c2nc3c(Cl)c(N4CCC(F)(F)CC4)c(Cl)cc3[nH]2)cc1` (single isomer, unassigned) [3-(4,6-dichloro-5-(4,4-difluoropiperidin-1-yl)-1H-benzo[d]imidazol-2-yl)-3-(4-(ethylsulfonyl)phenyl)propan-1-ol] yielded a 50% inhibitory concentration (IC50) in test [2] of 0.093 µM. The molecule `CCS(=O)(=O)c1ccc(C(CO)c2nc3c(C)c(-c4ccccc4C(F)(F)F)c(C)cc3[nH]2)cc1` (stereo not shown) [Example 116, 2-(4,6-dimethyl-5-(2-(trifluoromethyl)phenyl)-1H-benzo[d]imidazol-2-yl)-2-(4-(ethylsulfonyl)phenyl)ethanol] registered an IC50 in test [2] of 0.235 µM.

Turning to `CCS(=O)(=O)c1ccc(C(NC(C)=O)c2nc3c(Cl)c(-c4ccccc4OC(F)F)c(Cl)cc3[nH]2)cc1` (stereo not shown) [Example 40, N-((4,6-dichloro-5-(2-(difluoromethoxy)phenyl)-1H-benzo[d]imidazol-2-yl)(4-(ethylsulfonyl)phenyl)methyl)acetamide], the midpoint of inhibition in test [2], the IC50, lay at 0.083 µM.

`O=S(=O)(CCF)c1ccc(Cc2nc3c(Cl)c(-c4ccccc4C(F)(F)F)c(Cl)cc3[nH]2)cc1` [Example 63, 4,6-dichloro-2-(4-((2-fluoroethyl)sulfonyl)benzyl)-5-(2-(trifluoromethyl)phenyl)-1H-benzo[d]imidazole] had an IC50 in test [2] of 0.592 µM. Same read-out and setting: the figure for `CS(=O)(=O)c1ccc(C(CO)c2nc3c(Cl)c(-c4ccccc4OC(F)F)c(Cl)cc3[nH]2)cc1` (stereo not shown) [Example 48, 2-(4,6-dichloro-5-(2-(difluoromethoxy)phenyl)-1H-benzo[d]imidazol-2-yl)-2-(4-(methylsulfonyl)phenyl)ethanol] is 0.445 µM; for `CCS(=O)(=O)c1ccc(C(CO)c2nc3c(Cl)c(-c4ccccc4C(C)C)c(Cl)cc3[nH]2)cc1` (stereo not shown) [Example 37, 2-(4,6-dichloro-5-(2-isopropylphenyl)-1H-benzo[d]imidazol-2-yl)-2-(4-(ethylsulfonyl)phenyl)ethanol] it is 0.433 µM; for `CS(=O)(=O)c1ccc(C(CO)c2nc3c(Cl)c(-c4ccccc4OC(F)(F)F)c(Cl)cc3[nH]2)c(Cl)c1` (stereo not shown) [Example 102, 2-(2-chloro-4-(methylsulfonyl)phenyl)-2-(4,6-dichloro-5-(2-(trifluoromethoxy)phenyl)-1H-benzo[d]imidazol-2-yl)ethanol] it is 0.062 µM. `CC(C)S(=O)(=O)c1ccc(C(CO)c2nc3c(Cl)c(-c4ccccc4C(F)(F)F)c(Cl)cc3[nH]2)cc1` (stereo not shown) [Example 107] had an IC50 in test [2] of 0.055 µM.
